# Literature values as cited in patent US6110927A, “Loratadine for use as an antiarrhythmic” (Pfizer Inc, priority 1999, dated 2000).
# Legend:
# [1] = clinical studies
# [2] = both with and without a history of similar arrhythmia
# hKv1.5 channels = conditions: only at concentrations much higher than therapeutic plasma levels in man
Structure (SMILES),efficacy in treating patients with atrial arrhythmias [1],reported cases of atrial fibrillation with loratadine use [2],block of hKv1.5 channels (hKv1.5 channels)
CN(CCOc1ccc(NS(C)(=O)=O)cc1)CCc1ccc(NS(C)(=O)=O)cc1 [dofetilide],effective in treating patients with atrial arrhythmias,–,–
"CCOC(=O)N1CCC(=C2c3ccc(Cl)cc3CCc3cccnc32)CC1 [loratadine, ethyl 4-(8-chloro-5,6-dihydro-11-H-benzo [5,6]cyclohepta-[1,2-b]-pyridin-11-ylidene)-1-piperidinecarboxylate]",–,at least 2 cases,"blocked hKv1.5 channels in a concentration-, voltage-, time- and use-dependent manner"
